ChEMBL document CHEMBL1201862, “PubChem BioAssay data set” (2004)
Active and inactive are the calls of the source.

Tests used:
[1] = biological target: T1, Sphingosine 1-phosphate receptor 2 (Homo sapiens, UniProt O95136); assay: Dose Response Cell Based Assay for Agonists of the S1P2 Receptor. [Related pubchem assays: 729, 736, 843 ]; type: functional
[2] = LGR2 antagonists, dose response, cell-based, HEK293, CRE-luciferase reporter, cherry pick, set 2 (AID 743343); type: functional;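 further: transfected cells were stimulated with diluted bursicon conditioned medium after compound addition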
[3] = Late stage counterscreen results from the probe development effort to identify activators of signal transducer and activator of transcription 1 (STAT1): luminescence-based cell-based dose response assay to identify cytotoxic compounds.; type: functional
[4] = MC4R antagonists, dose response, counter-screen for LGR2 antagonist project, cell-based, plate reader, cherry pick (AID 743444); type: functional;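 further: transfected HEK 293 cells stimulated with alpha-MSH peptide; potency of inhibitors of the alpha-MSH evoked signal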
[5] = biological target: E3 ubiquitin-protein ligase Mdm2 (Homo sapiens, UniProt Q00987); assay: enhancers of MDM2-luciferase reporter signal, concentration-effect titration, project on inhibitors of MDM2 ubiquitin ligase, cellular assay, luminescent readout, 384-well plate format (AID 1394); type: functional;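 further: MDM2 E3 inhibitors raise luminescence so EC50 is for signal enhancement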
[6] = biological target: T1, Sphingosine 1-phosphate receptor 2; assay: Dose Response Cell Based Assay for Antagonists of the S1P2 Receptor. [Related pubchem assays: 856, 736 ]; type: functional
[7] = biological target: Bifunctional protein GlmU (Mycobacterium tuberculosis, UniProt P9WMN3); assay: Inhibitors of Mycobacterial Glucosamine-1-phosphate acetyl transferase (GlmU). Secondary screen.; parameters: species or system Mycobacterium tuberculosis H37Rv
Aminopeptidase N = biological target: T2, Aminopeptidase N (Plasmodium falciparum FcB1/Columbia, UniProt O96935); assay: P. falciparum M1AAP inhibitors, biochemical, fluorogenic H-Leu-NHMec substrate, 1536-well (AID 1445); parameters: species or system Plasmodium falciparum 3D7, 3D7
T2 sequence (O96935 whole entry): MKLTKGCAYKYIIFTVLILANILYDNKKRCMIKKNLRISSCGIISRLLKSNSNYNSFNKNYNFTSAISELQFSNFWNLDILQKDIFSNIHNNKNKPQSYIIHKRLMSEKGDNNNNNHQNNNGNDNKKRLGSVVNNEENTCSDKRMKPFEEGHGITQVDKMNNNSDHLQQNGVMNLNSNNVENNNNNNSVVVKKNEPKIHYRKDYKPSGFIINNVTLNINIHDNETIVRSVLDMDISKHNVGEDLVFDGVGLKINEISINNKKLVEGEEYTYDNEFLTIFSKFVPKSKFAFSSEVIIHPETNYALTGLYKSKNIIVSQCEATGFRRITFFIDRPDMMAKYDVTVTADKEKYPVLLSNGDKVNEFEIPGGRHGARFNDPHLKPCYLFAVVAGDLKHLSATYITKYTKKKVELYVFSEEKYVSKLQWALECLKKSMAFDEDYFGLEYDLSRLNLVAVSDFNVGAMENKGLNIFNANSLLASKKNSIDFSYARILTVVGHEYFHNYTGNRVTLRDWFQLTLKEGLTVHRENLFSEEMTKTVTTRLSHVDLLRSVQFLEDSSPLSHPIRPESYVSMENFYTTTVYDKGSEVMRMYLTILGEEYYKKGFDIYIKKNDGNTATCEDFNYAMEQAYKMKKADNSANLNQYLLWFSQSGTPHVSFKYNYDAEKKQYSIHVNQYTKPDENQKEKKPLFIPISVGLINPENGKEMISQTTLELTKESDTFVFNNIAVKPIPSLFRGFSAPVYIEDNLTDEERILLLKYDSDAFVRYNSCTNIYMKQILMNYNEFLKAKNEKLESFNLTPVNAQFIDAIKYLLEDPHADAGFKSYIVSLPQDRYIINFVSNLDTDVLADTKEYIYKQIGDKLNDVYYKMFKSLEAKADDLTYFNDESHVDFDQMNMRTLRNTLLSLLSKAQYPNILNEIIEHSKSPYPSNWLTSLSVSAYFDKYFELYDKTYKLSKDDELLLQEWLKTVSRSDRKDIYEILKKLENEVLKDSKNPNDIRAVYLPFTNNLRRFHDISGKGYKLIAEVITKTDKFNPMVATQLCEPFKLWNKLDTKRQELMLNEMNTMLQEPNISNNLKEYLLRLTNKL

NADPH oxidase 1 = NADPH oxidase 1 (Homo sapiens, UniProt Q9Y5S8); assay: Late-stage luminescence-based cell-based dose response assay to identify inhibitors of NADPH oxidase 1 (NOX1): Synthesized analogs 2.; type: functional
Cytochrome P450 2C19 = Cytochrome P450 2C19 (Homo sapiens, UniProt P33261); assay: qHTS Assay for Inhibitors and Substrates of Cytochrome P450 2C19. [Related pubchem assays: 410 ]; type: ADME; details: read-out: Potency
Cytochrome P450 2C9 = Cytochrome P450 2C9 (Homo sapiens, UniProt P11712); details: Potency
[8] = biological target: Peroxisome proliferator-activated receptor gamma/Nuclear receptor corepressor 2 (Homo sapiens, UniProt P37231+Q9Y618); type: functional
[9] = Luminescence Cell-Based Dose Response to Identify Activators of 5'UTR Stem-Loop Driven Prion Protein mRNA Translation in H4-C Neuroglioblastoma Cells. [Related pubchem assays: 1829 (Project Summary), 1814 (Primary HTS)]; type: functional
[10] = C. albicans growth with fluconazole, confirmation, fluorescence, retest (AID 2467); type: functional, cell-based
[11] = Luminescence Cell-Based Dose Confirmation to Identify Activators of 5'UTR Stem-Loop Driven Alpha-Synuclein mRNA Translation in H4 Neuroglioblastoma Cells. [Related pubchem assays: 1829 (Project Summary), 1814 (Primary HTS)]; type: functional
[12] = biological target: T3, Polyadenylate-binding protein 1 (Homo sapiens, UniProt P11940); assay: PABP1 MLLE–PAM2 binding inhibitor potency, dose response, biochemical, fluorescence polarization, FITC-PAM2 peptide (AID 602259); type: functional; details: read-out: IC50_Mean
[13] = biological target: Voltage-gated inwardly rectifying potassium channel KCNH2 (Homo sapiens, UniProt Q12809); assay: hERG protection from proarrhythmic block, potency, dose response, cell-based, thallium flux (AID 2121); type: ADME
Estrogen receptor beta = Estrogen receptor beta (Homo sapiens, UniProt Q92731);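 further: recombinant ER-beta bound to coactivator SRC1 peptide in presence of estradiol agonist; inhibitors block coactivator peptide binding and lower the FRET signal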
[14] = biological target: T3, Polyadenylate-binding protein 1; assay: PABP1 MLLE–PAM2 interaction inhibitors, dose response, miRNA deadenylation inhibitor project, biochemical, fluorescence polarization, Cy5-PAM2 peptide, secondary (AID 602260); type: functional; details: read-out: IC50_Mean
[15] = biological target: Photoreceptor-specific nuclear receptor (Homo sapiens, UniProt Q9Y5X4); type: functional;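 further: potency for compounds that break the NR2E3 corepressor complex and count as activators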
[16] = NIH-3T3 fibroblast cytotoxicity, dose response, cytotoxicity control, cell-based, fluorescence, Alamar Blue, secondary assay (AID 2327); type: functional;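 further: NIH-3T3 mouse fibroblasts cultured with fluconazole at 8 µg/mL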
[17] = Luminescence Cell-Based Dose Response HTS to Identify Activators of Luciferase Translation or Activity in H4 […] Cells. [Related pubchem assays: 1829 (Project Summary), 1814 (Primary HTS)]; type: functional
[18] = Luminescence Cell-Based Dose Response to Identify Activators of Luciferase Translation or Activity in H4-C Neuroglioblastoma Cells. [Related pubchem assays: 1829 (Project Summary), 1814 (Primary HTS)]; type: functional
cells = type: functional
[19] = HepG2 cell cytotoxicity, dose response, cytotoxicity control for non-replicating M. tuberculosis project (AID 489018); type: functional; details: Mycobacterium tuberculosis
[20] = inhibitors of intracellular T. cruzi replication, confirmation, NIH3T3 host cells, beta-gal luminescence (AID 2044); type: functional, cell-based;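 further: intracellular parasites grown in NIH/3T3 mouse fibroblasts as host cells; luminescent beta-galactosidase reporter signal from transgenic T. cruzi replicating inside host cells; inhibitors lower the luminescence signal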
[21] = Vero E6 cell cytotoxicity, dose response, cytotoxicity control for non-replicating M. tuberculosis project, secondary assay (AID 492998); type: functional, VeroE6; details: Vero C1008
[22] = cytotoxicity toward NIH3T3 fibroblasts, dose response, counter-screen, cell-based, ATP luminescence, mouse fibroblasts (AID 2010); type: functional;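 further: cells exposed to compound for about 90 hours before reading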
[23] = biological target: Aryl hydrocarbon receptor (Homo sapiens, UniProt P35869); assay: Luminescence-based cell-based high throughput dose response assay for activators of the Aryl Hydrocarbon Receptor (AHR). [Related pubchem assays: 2796 (Primary screen (AHR activators in singlicate)), 2845 (Confirmation screen (AHR activators in triplicate)), 434939 (Counterscreen (PXR activators in triplicate)), 2804 (Summary (AHR activators))]; type: ADME
[24] = THP-1 cell cytotoxicity, dose response, cytotoxicity control for non-replicating M. tuberculosis project (AID 489025); type: functional

T1 sequence (O95136 whole entry): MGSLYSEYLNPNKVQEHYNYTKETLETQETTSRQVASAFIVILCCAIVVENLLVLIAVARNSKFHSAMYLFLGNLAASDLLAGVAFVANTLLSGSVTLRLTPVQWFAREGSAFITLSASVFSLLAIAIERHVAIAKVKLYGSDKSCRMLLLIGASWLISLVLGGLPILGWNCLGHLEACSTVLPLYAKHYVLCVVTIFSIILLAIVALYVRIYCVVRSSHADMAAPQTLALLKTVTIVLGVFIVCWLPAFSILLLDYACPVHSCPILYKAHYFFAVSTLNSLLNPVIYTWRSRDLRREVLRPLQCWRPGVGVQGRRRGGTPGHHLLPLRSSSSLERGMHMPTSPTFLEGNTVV
T3 sequence (P11940 whole entry): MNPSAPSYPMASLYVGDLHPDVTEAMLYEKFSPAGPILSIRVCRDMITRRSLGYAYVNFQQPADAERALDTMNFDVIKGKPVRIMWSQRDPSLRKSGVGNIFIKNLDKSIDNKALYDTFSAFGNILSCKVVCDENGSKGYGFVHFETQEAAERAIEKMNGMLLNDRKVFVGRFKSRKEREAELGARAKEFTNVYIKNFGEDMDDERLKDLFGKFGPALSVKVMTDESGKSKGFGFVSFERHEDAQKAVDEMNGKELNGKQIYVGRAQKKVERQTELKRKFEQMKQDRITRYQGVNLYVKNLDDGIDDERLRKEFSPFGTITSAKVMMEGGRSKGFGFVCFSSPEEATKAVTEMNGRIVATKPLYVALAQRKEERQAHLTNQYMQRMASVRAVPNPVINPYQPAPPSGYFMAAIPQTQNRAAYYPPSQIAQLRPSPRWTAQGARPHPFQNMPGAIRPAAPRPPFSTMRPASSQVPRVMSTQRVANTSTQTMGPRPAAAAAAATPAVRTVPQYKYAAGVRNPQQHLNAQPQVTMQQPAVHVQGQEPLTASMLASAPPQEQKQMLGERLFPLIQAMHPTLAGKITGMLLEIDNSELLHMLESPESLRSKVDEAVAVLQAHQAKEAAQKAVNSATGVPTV
Chain of Voltage-gated inwardly rectifying potassium channel KCNH2 (Q12809 whole entry): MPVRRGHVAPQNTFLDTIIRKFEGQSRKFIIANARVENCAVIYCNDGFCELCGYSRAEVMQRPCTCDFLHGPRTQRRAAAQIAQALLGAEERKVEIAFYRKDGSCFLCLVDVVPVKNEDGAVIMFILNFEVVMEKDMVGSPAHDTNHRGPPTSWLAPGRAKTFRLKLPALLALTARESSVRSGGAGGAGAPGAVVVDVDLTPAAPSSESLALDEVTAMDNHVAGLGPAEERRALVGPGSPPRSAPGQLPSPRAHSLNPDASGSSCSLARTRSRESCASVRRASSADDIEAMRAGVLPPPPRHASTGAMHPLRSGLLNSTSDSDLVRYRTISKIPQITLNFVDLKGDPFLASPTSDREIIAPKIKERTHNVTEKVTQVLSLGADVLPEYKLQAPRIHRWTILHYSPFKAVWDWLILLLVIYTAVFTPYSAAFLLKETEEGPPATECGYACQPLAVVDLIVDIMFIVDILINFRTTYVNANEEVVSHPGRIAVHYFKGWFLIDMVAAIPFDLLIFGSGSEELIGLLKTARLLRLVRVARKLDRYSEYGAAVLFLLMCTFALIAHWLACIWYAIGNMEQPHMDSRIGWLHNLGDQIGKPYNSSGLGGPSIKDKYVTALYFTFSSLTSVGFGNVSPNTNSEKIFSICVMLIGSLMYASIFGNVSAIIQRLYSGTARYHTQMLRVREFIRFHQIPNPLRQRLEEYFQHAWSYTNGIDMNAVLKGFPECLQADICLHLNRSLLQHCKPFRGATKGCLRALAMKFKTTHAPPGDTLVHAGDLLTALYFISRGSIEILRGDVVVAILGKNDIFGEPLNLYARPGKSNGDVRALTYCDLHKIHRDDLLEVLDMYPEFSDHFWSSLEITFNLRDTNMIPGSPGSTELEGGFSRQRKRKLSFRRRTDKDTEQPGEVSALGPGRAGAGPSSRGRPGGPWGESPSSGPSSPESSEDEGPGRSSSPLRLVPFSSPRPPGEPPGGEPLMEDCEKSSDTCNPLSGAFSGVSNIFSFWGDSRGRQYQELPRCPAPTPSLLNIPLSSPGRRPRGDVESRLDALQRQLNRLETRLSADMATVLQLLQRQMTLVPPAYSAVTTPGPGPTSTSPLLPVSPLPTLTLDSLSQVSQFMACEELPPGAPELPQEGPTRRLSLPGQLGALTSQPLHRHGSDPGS
Chain of Photoreceptor-specific nuclear receptor (Q9Y5X4 whole entry): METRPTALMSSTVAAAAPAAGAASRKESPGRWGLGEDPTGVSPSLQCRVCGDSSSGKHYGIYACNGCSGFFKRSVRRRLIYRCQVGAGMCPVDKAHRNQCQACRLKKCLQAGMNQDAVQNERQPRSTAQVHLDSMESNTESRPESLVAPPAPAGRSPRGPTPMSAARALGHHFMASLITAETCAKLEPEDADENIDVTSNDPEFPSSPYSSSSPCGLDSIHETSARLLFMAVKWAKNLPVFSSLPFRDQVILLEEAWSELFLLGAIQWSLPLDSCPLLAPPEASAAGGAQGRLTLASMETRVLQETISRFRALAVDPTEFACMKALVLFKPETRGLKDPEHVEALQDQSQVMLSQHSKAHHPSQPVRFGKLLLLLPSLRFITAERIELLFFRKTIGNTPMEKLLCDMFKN
Chain of Cytochrome P450 2C9 (P11712 whole entry): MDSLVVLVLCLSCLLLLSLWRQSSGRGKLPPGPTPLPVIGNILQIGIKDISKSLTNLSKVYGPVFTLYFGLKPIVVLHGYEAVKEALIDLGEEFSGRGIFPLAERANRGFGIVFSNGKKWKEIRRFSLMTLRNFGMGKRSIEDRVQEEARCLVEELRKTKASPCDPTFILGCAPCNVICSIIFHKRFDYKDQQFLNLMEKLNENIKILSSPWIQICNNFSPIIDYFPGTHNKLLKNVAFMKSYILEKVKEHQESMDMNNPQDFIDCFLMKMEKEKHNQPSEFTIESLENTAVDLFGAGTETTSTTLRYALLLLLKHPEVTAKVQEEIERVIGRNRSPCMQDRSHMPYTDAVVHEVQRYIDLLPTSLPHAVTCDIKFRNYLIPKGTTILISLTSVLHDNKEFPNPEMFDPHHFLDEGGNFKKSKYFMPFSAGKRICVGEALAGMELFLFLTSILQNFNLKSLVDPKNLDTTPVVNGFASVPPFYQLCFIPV
Chain of NADPH oxidase 1 (Q9Y5S8 whole entry): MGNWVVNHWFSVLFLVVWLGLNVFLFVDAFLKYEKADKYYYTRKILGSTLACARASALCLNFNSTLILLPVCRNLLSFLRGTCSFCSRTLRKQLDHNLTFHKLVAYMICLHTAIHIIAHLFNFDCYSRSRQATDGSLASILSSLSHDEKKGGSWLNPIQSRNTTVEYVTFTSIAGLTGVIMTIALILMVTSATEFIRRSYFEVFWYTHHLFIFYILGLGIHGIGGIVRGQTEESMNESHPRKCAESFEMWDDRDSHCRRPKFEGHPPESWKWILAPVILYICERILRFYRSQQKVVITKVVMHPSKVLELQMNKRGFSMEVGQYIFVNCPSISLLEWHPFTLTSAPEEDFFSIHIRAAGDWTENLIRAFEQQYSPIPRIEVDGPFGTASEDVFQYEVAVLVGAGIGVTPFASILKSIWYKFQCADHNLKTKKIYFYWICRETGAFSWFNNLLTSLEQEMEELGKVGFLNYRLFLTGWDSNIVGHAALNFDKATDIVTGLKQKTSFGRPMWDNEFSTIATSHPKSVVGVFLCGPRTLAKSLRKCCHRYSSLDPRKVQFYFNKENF
Chain of Estrogen receptor beta (Q92731 whole entry): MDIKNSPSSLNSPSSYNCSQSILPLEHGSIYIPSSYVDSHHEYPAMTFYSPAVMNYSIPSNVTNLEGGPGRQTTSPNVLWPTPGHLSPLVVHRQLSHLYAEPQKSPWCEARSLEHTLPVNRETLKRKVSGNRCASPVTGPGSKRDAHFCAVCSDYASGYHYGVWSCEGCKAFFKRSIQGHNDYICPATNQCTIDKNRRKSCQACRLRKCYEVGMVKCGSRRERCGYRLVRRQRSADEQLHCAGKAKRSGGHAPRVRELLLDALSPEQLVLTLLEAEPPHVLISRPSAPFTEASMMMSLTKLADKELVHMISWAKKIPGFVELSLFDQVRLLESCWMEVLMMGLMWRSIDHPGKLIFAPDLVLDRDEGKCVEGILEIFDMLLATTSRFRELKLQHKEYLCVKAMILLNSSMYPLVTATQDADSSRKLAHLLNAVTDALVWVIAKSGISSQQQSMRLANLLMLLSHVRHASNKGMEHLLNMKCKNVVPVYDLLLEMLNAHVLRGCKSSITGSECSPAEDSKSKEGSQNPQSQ
Chain of E3 ubiquitin-protein ligase Mdm2 (Q00987 whole entry): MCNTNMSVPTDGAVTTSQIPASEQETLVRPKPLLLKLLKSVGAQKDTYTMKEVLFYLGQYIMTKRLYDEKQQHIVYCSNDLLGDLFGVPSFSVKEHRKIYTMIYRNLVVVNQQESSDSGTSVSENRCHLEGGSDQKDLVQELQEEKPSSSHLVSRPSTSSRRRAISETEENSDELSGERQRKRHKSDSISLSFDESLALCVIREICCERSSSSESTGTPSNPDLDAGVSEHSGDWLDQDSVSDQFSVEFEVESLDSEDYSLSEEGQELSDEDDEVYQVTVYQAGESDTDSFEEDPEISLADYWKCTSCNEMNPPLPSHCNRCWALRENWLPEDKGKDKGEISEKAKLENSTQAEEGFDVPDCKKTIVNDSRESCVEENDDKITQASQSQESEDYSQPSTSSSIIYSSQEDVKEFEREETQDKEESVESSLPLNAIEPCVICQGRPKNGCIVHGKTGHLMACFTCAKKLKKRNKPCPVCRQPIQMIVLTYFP

## Oc1cccc(C(=S)N2CCN(Cc3ccccc3)CC2)c1
[1]
  EC50: > 50 µM (not active)

## COc1ccc(-c2cc(C)nc3c(-c4ccccc4)cnn23)cc1
[2]
  AC50: 15.9 µM (active)
[3]
  IC50: > 55.7 µM (not active)
[4]
  AC50: 20.1 µM (active)

## CC(C)Oc1ccc(C(=O)NC(=S)N2CCOCC2)cc1
[5]
  EC50: 25 µM (not active)

## CCOC(=O)C1C(=O)CC(C)(O)C(C(=O)OCC)C1c1ccccc1 (stereo not given)
[6]
  IC50: > 50 µM (not active)

## O=C(CCCN1C(=O)/C(=C/c2ccco2)SC1=S)Nc1ccccc1C(=O)O
[7]
  IC50: 86 µM (active)
Aminopeptidase N
  IC50: 102 µM (active)

## CC(=O)c1ccc2c(c1)N(C(=O)Nc1ccccc1)c1ccccc1S2
NADPH oxidase 1
  IC50: 1.56 µM (active)

## CC(C)C[C@@H](CC(=O)N[C@@H](CCCN)CC(=O)N[C@@H]1CCCC[C@H]1C(=O)N[C@H](CC(=O)N[C@@H](CCC(=O)O)CC(=O)O)Cc1ccccc1)NC(=O)[C@@H]1CCCC[C@H]1N
Cytochrome P450 2C19
  AC50: 39.8 µM (inconclusive)
Cytochrome P450 2C9
  AC50: 3.98 µM (inconclusive)

## Cc1ccc(C(=O)Nc2nc3ccccc3c(=O)s2)cc1
[8]
  IC50: 2.71 µM (active)
[9]
  EC50: 311 nM (active)
[10]
  EC50: 10.2 µM (active)
[11]
  EC50: 295 nM (active)
[12]
  IC50: > 66 µM (inactive)
[13]
  EC50: 2.74 µM (active)
Estrogen receptor beta
  IC50: > 50 µM (not active)
[14]
  IC50: > 66 µM (inactive)
[15]
  IC50: > 39.8 µM (not active)
[16]
  EC50: > 160 µM (inactive)
[17]
  EC50: < 100 nM (inconclusive)
[18]
  EC50: 303 nM (active)

## COc1ccc(/C=N/Nc2cc(C)nc3ccccc23)cc1
cells
  IC50: 11.1 µM (active)
[19]
  CC50: 12.5 µM (active)
[20]
  EC50: 2.35 µM (active)
[21]
  CC50: 11 µM (active)
[22]
  EC50: 11.2 µM (active)
[23]
  EC50: > 1.13 µM (active)
[24]
  CC50: 12.1 µM (active)
